36 compounds from patent US8173841B2, “Tetrahydro-naphthalene derivatives” (Xention Limited, priority 2003, dated 2012) can be followed below.

One data set has as its target T1, human VR1 (Homo sapiens, UniProt Q8NER1).
T1 construct: expressed in transfected cells
The data set can be described thus: Capsaicin-induced Ca2+ influx in the human VR1-transfected CHO cell line (Assay 1). The settings on record: human VR1-CHOluc9aeq cells, stimulation with 10 nM capsaicin, Fluo-3 AM / FDSS-3000; compounds of purity about 40 to 90%; read-out: Activity Class (IC50 of capsaicin-induced Ca2+ influx). The format is cell-based. The source says:
[Measurement of Capsaicin-Induced Ca^2+ Influx in the Human VR1-Transfected CHO Cell Line] (Assay 1)
(1) Establishment of the Human VR1-CHOluc9aeq Cell Line
Human vanilloid receptor (hVR1) cDNA was cloned from libraries of axotomized dorsal root ganglia (WO 00/29577). The cloned hVR1 cDNA was constructed with pcDNA3 vector and transfected into a CHOluc9aeq cell line. The cell line contains aequorin and CRE-luciferase reporter genes as read-out signals. The transfectants were cloned by limiting dilution in selection medium (DMEM/F12 medium (Gibco BRL) supplemented with 10% FCS, 1.4 mM Sodium pyruvate, 20 mM HEPES, 0.15% Sodium bicarbonate, 100 U/ml penicillin, 100 μg/ml streptomycin, 2 mM glutamine, non-essential amino acids and 2 mg/ml G418). Ca^2+ influx was examined in the capsaicin-stimulated clones. A high responder clone was selected and used for further experiments in the project. The human VR1-CHOluc9aeq cells were maintained in the selection medium and passaged every 3-4 days at 1−2.5×10^5 cells/flask ([…]).
(2) Measurement of Ca^2+ influx using FDSS-3000
Human VR1-CHOluc9aeq cells were suspended in a culture medium which is the same as the selection medium except for G418 and seeded at a density of 1,000 cells per well into 384-well plates (black walled clear-base/Nalge Nunc International). Following the culture for 48 hrs the medium was changed to 2 μM Fluo-3 AM (Molecular Probes) and 0.02% Puronic F-127 in assay buffer (Hank's balanced salt solution (HBSS), 17 mM HEPES (pH7.4), 1 mM Probenecid, 0.1% BSA) and the cells were incubated for 60 min at 25° C. After washing twice with assay buffer the cells were incubated with a test compound or vehicle for 20 min at 25° C. Mobilization of cytoplasmic Ca^2+ was measured by FDSS-3000 (λex=488 nm, λem=540 nm/Hamamatsu Photonics) for 60 sec after the stimulation with 10 nM capsaicin. Integral R was calculated and compared with controls.
The data corresponds to the compounds as yielded by solid phase synthesis and thus to levels of purity of about 40 to 90%. For practical reasons, the compounds are grouped in four classes of activity as follows: IC50=A (< or =) 0.1 μM<B (< or =) 0.5 μM<C (< or =) 1 μM<D

T1 sequence (Q8NER1 whole entry): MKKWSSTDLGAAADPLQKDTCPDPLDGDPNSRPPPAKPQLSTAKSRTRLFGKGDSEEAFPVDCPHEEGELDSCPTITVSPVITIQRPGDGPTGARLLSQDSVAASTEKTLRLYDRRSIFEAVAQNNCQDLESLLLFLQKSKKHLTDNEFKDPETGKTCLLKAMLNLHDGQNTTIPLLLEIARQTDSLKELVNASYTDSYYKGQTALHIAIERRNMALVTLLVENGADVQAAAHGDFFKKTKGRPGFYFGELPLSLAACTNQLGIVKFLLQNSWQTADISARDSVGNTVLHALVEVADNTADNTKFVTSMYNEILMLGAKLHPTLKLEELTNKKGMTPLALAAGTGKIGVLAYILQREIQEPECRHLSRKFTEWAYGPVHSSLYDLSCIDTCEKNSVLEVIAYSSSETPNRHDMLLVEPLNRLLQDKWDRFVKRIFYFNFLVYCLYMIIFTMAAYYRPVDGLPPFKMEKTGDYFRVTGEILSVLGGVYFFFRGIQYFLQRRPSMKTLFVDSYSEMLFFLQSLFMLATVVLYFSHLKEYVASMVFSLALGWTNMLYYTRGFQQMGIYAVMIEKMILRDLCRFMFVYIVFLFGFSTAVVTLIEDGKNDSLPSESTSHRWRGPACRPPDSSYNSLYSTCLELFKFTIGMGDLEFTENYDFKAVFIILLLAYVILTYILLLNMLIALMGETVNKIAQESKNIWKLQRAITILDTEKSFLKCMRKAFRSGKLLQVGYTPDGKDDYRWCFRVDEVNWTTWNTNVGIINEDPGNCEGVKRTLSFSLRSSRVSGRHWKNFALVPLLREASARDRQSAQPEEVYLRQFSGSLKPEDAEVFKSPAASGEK

As usually defined, the melting point is the temperature of the solid-liquid transition. Broadly, the IC50 is the concentration that gives 50% inhibition. Consider `COc1ccc(-c2ccc(CNC(=O)Nc3cccc4c3CC(O)CC4)cc2)cc1OC` (stereo not drawn) [Example 1-47], for which the melting point lay in the range of 205 to 206 °C. For the same compound, at human VR1, the IC50 is 500 to 1000 nM.

Compound `O=C(NCc1ccc(-c2ccccc2F)cc1)Nc1cccc2c1CC(O)CC2` (stereo not drawn) [Example 1-48] returned a melting point of 187 to 188 °C. Moreover, the IC50 on human VR1 was < 100 nM.

`O=C(NCc1ccc(-c2ccc(F)cc2F)cc1)Nc1cccc2c1CC(O)CC2` (stereo not drawn) [Example 1-49] showed a melting point of 191 to 192 °C. Moreover, the IC50 on human VR1 was < 100 nM.

Regarding `O=C(NCc1ccc(-c2c(F)cccc2F)cc1)Nc1cccc2c1CC(O)CC2` (stereo not drawn) [Example 1-50], the melting point is 204 to 205 °C. The IC50 at human VR1 is < 100 nM.

In turn, `Cc1cc(C)cc(-c2ccc(CNC(=O)Nc3cccc4c3CC(O)CC4)cc2)c1` (stereo not drawn) [Example 1-51] displayed a melting point of 205 to 206 °C. In addition, at human VR1, the IC50 was < 100 nM.

Take `CC(C)c1ccc(-c2ccc(CNC(=O)Nc3cccc4c3CC(O)CC4)cc2)cc1` (stereo not drawn) [Example 1-52]: the melting point was in the range of 202 to 203 °C. Moreover, the IC50 at human VR1 was < 100 nM.

In the case of `O=C(NCc1ccc(-c2cc(Cl)cc(Cl)c2)cc1)Nc1cccc2c1CC(O)CC2` (stereo not drawn) [Example 1-53], the melting point lay within 204 to 205 °C. Also, the IC50 at human VR1 was < 100 nM.

The compound `O=C(NCc1ccc(-c2cccc([N+](=O)[O-])c2)cc1)Nc1cccc2c1CC(O)CC2` (stereo not drawn) [Example 1-54] displayed a melting point of 206 to 207 °C. The IC50 at human VR1 was < 100 nM.

In the case of `O=C(NCc1cccc(-c2ccc(F)cc2)c1)Nc1cccc2c1CC(O)CC2` (stereo not drawn) [Example 1-55], the melting point was 194 to 195 °C. In addition, the IC50 at human VR1 is < 100 nM.

In the case of `O=C(NCc1cccc(-c2cccc(OC(F)(F)F)c2)c1)Nc1cccc2c1CC(O)CC2` (stereo not drawn) [Example 1-56], the melting point was in the range of 175 to 176 °C. The IC50 on human VR1 was < 100 nM.

`CN(C)c1ccc(-c2cccc(CNC(=O)Nc3cccc4c3CC(O)CC4)c2)cc1` (stereo not drawn) [Example 1-57] had a melting point of 207 to 208 °C. In addition, on human VR1, the half-inhibitory concentration (IC50) is < 100 nM.

`O=C(NCc1cccc(-c2ccc(OC(F)(F)F)cc2)c1)Nc1cccc2c1CC(O)CC2` (stereo not drawn) [Example 1-58] returned a melting point of 188 to 189 °C. For the same compound, the IC50 on human VR1 is < 100 nM.

In the case of `O=C(NCc1cccc(-c2cc(C(F)(F)F)cc(C(F)(F)F)c2)c1)Nc1cccc2c1CC(O)CC2` (stereo not drawn) [Example 1-59], the melting point fell in the range of 208 to 209 °C. Also, the IC50 on human VR1 is < 100 nM.

For the compound `COc1ccc(OC)c(-c2cccc(CNC(=O)Nc3cccc4c3CC(O)CC4)c2)c1` (stereo not drawn) [Example 1-60], the melting point lay in the range of 123 to 124 °C. In addition, the IC50 on human VR1 was < 100 nM.

`COc1ccccc1-c1cccc(CNC(=O)Nc2cccc3c2CC(O)CC3)c1` (stereo not drawn) [Example 1-61] yielded a melting point of 129 to 130 °C. For the same compound, the IC50 at human VR1 was < 100 nM.

`COc1ccc(-c2cccc(CNC(=O)Nc3cccc4c3CC(O)CC4)c2)cc1OC` (stereo not drawn) [Example 1-62]: the melting point lay in the range of 223 to 224 °C. Moreover, the IC50 on human VR1 was < 100 nM.

On to `O=C(NCc1cccc(-c2cccc([N+](=O)[O-])c2)c1)Nc1cccc2c1CC(O)CC2` (stereo not drawn) [Example 1-63], for which the melting point was in the range of 191 to 192 °C. Besides, at human VR1, the IC50 is < 100 nM.

Compound `O=C(NCc1cccc(-c2ccc(F)cc2F)c1)Nc1cccc2c1CC(O)CC2` (stereo not drawn) [Example 1-64] yielded a melting point of 197 to 198 °C. Besides, on human VR1, the IC50 is < 100 nM.

`O=C(NCc1cccc(-c2ccc(F)c(F)c2)c1)Nc1cccc2c1CC(O)CC2` (stereo not drawn) [Example 1-65] returned a melting point of 188 to 189 °C. Moreover, the IC50 at human VR1 was < 100 nM.

Consider `O=C(NCc1cccc(-c2ccccc2F)c1)Nc1cccc2c1CC(O)CC2` (stereo not drawn) [Example 1-66], for which the melting point lay in the range of 197 to 198 °C. In addition, the IC50 on human VR1 was < 100 nM.

As for `Cc1cc(C)cc(-c2cccc(CNC(=O)Nc3cccc4c3CC(O)CC4)c2)c1` (stereo not drawn) [Example 1-67], the melting point is 197 to 198 °C. The IC50 on human VR1 was < 100 nM.

For `CSc1ccc(-c2cccc(CNC(=O)Nc3cccc4c3CC(O)CC4)c2)cc1` (stereo not drawn) [Example 1-68], the melting point lay within 195 to 196 °C. Moreover, the IC50 at human VR1 was < 100 nM.

`O=C(NCc1cccc(-c2c(F)cccc2F)c1)Nc1cccc2c1CC(O)CC2` (stereo not drawn) [Example 1-69]: the melting point lay within 141 to 142 °C. Besides, the IC50 at human VR1 is < 100 nM.

`CC(C)c1ccc(-c2cccc(CNC(=O)Nc3cccc4c3CC(O)CC4)c2)cc1` (stereo not drawn) [Example 1-70] displayed a melting point of 202 to 203 °C. In addition, the IC50 at human VR1 is < 100 nM.

`O=C(NCc1cccc(-c2ccc(F)c(Cl)c2)c1)Nc1cccc2c1CC(O)CC2` (stereo not drawn) [Example 1-71] returned a melting point of 188 to 189 °C. In addition, the concentration for half-maximal inhibition (IC50) on human VR1 is < 100 nM.

`O=C(NCc1cccc(-c2ccc(Cl)cc2Cl)c1)Nc1cccc2c1CC(O)CC2` (stereo not drawn) [Example 1-72] displayed a melting point of 152 to 153 °C. Moreover, at human VR1, the IC50 was < 100 nM.

Compound `COc1ccc(-c2cccc(CNC(=O)Nc3cccc4c3CC(O)CC4)c2)cc1` (stereo not drawn) [Example 1-73] returned a melting point of 188 to 189 °C. The IC50 on human VR1 was < 100 nM.

In turn, `C[S+]([O-])c1ccc(-c2cccc(CNC(=O)Nc3cccc4c3CC(O)CC4)c2)cc1` (stereo not drawn) [Example 1-74] had a melting point of 110 to 112 °C. For the same compound, the half-inhibitory concentration (IC50) at human VR1 is < 100 nM.

In turn, `O=C(Nc1cccc(-c2cccc3ccccc23)c1)Nc1cccc2c1CC(O)CC2` (stereo not drawn) [Example 1-75] gave a melting point of 223 °C. Moreover, the IC50 on human VR1 is < 100 nM.

In the case of `CSc1ccc(-c2cc(CNC(=O)Nc3cccc4c3CC(O)CC4)ccc2N2CCCCC2)cc1` (stereo not drawn) [Example 1-76], the melting point is 113 to 115 °C. In addition, the IC50 at human VR1 is < 100 nM.

In turn, `O=C(Nc1cccc2c1CC(O)CC2)c1ccc(-c2ccc(F)c(F)c2)cc1` (stereo not drawn) [Example 2-1, 3′,4′-Difluoro-N-(7-hydroxy-5,6,7,8-tetrahydronaphthalen-1-yl)biphenyl-4-carboxamide] displayed a melting point of 210.4 to 212.7 °C. The IC50 on human VR1 is < 100 nM.

On to `CN(C)c1ccc(-c2ccc(C(=O)Nc3cccc4c3CC(O)CC4)cc2)cc1` (stereo not drawn) [Example 2-2], for which the melting point lay within 222.1 to 225 °C. On human VR1, the half-inhibitory concentration (IC50) was < 100 nM.

The compound `COc1ccc(-c2cccc(C(=O)N(C)c3cccc4c3CC(O)CC4)c2)cc1` (stereo not drawn) [Example 2-3] gave a melting point of 150 to 151.2 °C. Further, at human VR1, the IC50 was 500 to 1000 nM.

For the compound `O=C(Nc1cccc2c1CC(O)CC2)c1ccc(-c2ccccc2)cc1` (stereo not drawn) [Example 2-4], the melting point was 215 to 217 °C. Moreover, the IC50 on human VR1 is < 100 nM.

As to `COc1ccc(-c2cccc(C(=O)Nc3cccc4c3CC(O)CC4)c2)cc1` (stereo not drawn) [Example 2-5], the melting point fell in the range of 193.3 to 196.5 °C. The IC50 at human VR1 fell in the range of 500 to 1000 nM.

With `O=C(Cc1cccc(-c2ccccc2)c1)Nc1cccc2c1CC(O)CC2` (stereo not drawn) [Example 3-1, 2-Biphenyl-3-yl-N-(7-hydroxy-5,6,7,8-tetrahydronaphthalen-1-yl)acetamide], the melting point is > 134 °C (dec.). Besides, the IC50 on human VR1 was in the range of 500 to 1000 nM.
